According to article PMC6947571, “An Orthologue of the Retinoic Acid Receptor (RAR) Is Present in the Ecdysozoa Phylum Priapulida” (Genes, 2019):

Target: T1, HsaRARα LBD (Homo sapiens, UniProt P10276)
T1 construct: gene RARA; glutathione S-transferase fusion (pGEX-4T-1), E. coli BL21(DE3)
T1 sequence (P10276 183-417 limits assumed): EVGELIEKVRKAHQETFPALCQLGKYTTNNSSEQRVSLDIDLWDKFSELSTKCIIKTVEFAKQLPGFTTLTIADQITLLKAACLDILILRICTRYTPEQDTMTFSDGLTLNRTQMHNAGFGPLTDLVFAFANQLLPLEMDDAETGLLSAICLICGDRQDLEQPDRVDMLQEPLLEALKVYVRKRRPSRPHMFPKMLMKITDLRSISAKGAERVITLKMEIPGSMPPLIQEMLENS
Test: competitive radioligand binding, hydroxyapatite precipitation
Conditions: 4 °C, labelled compound, positive control

Compound | competitive radioligand binding, hydroxyapatite precipitation (10 nM [3H]ATRA or [3H]9cisRA displaced by unlabelled 9cisRA) | competitive radioligand binding, hydroxyapatite precipitation (10 nM [3H]ATRA displaced by unlabelled ATRA)
CC1=C(/C=C/C(C)=C\C=C\C(C)=C\C(=O)O)C(C)(C)CCC1 [9cisRA] | Competition by ATRA and 9cisRA with [^3H]ATRA and [^3H]9cisRA for binding to the LBD | –
CC1=C(/C=C/C(C)=C/C=C/C(C)=C/C(=O)O)C(C)(C)CCC1 [ATRA] | – | Competition by ATRA and 9cisRA with [^3H]ATRA and [^3H]9cisRA for binding to the LBD
